Reference: a melting point compilation (Tetko et al.; mined from patent text by program, amines drawn as free bases though some values may be those of a salt)

SMILES | melting point
CN(C)C(=O)N1CCc2ccc(Nc3nc4c(-c5cc(Cl)ccc5OCC(F)F)cccn4n3)cc2CC1 | 98 to 99 °C
CN(Cc1ccc2c(Br)c(OC(Cc3ccccc3)C(=O)O)ccc2c1)C(=O)c1oc2ccccc2c1CCc1ccccc1 (centres undefined) | 87 to 90 °C
CCOC(=O)c1c(N)c2ccc(C)nc2n(CC)c1=O | 196 to 198 °C
O=C(OCC1CC1)c1ncn2c1[C@@H]1CCCN1C(=O)c1cc(Cl)ccc1-2 | 146 to 148 °C
CC(Oc1cc(Oc2ccc(C(F)(F)F)cc2Cl)ccc1[N+](=O)[O-])C(=O)NCc1ccco1 (centres undefined) | 128 to 130 °C
O=C(Cc1ccccn1)NC1CCC2(O)C3Cc4ccc(O)c5c4C2(CCN3CC2CC2)C1O5 (centres undefined) | 210 to 212 °C
CC1(CSc2ccccc2)COC2(CCCCCCCCCCC2)OO1 (centres undefined) | 89 °C
O=C(O)CCCCCCCCn1nc(-c2ccccc2)c(-c2ccccc2)cc1=O | 100 to 103 °C
CS(=O)(=O)c1ccc(CN2C(=O)C3(COc4cc5c(cc43)OCO5)c3ccccc32)o1 (centres undefined) | 177 to 179 °C
CCOCc1nc2cnc3cc(Br)cnc3c2n1CC(C)(C)F | 127 to 128 °C
O=C(NCCc1ccccn1)c1ccccc1-c1ccccc1CNS(=O)(=O)c1cccc(F)c1 | 123 °C
N#Cc1cc(F)c(NN=CC(=O)C(F)(F)F)nc1Cl | 174 to 176 °C
COc1cc(CNc2n[nH]c3ncnc(Nc4cccc(Cl)c4)c23)cc(OC)c1OC | 240 to 245 °C
CC(C)(C)OC(=O)N[C@H](Cc1ccc(C(F)(F)F)cc1)[C@@H](O)c1ccc(F)cc1 (racemic) | 158 to 159 °C
N#Cc1cc(C2=NOC(c3cc(Cl)cc(Cl)c3)(C(F)(F)F)C2)ccc1F (centres undefined) | 136 to 139 °C
O=c1[nH]c(Nc2cccc(C(F)(F)F)c2)nc2c1ncn2CCO | 347 to 349 °C
OCc1cccc(-c2ccc3nc(-c4ccc(Cl)cc4)cn3c2)c1F | 200 to 202 °C
CCCCc1nc2cccc(CO)c2n1Cc1ccc(-c2ccccc2C#N)cc1 | 203 to 204 °C
CCCOc1ccc2nc(NC(=O)OCC)sc2c1 | 175 to 177 °C
O=C(Cl)ON1C(=O)c2ccccc2C1=O | 113 to 115 °C
S=C(Cc1cccnc1)N1CCOCC1 | 158 to 160 °C
COC(=O)c1ccc(C(=O)Nc2cc3c4c(c2)CCCC4CCC3)s1 | 221 to 222 °C
O=C(/C=C/c1ccccc1)OCCOC(=O)NC1(C(=O)O)CC1 | 169 to 172 °C
CCCCCCCCCCCCCCCCCCc1c(C)[nH]c(C(=O)OCC)c1C | 76 to 78 °C
CCCOCCOc1cccc2oc(C(=O)N3CCN(C)CC3)cc(=O)c12 | 78 to 80 °C
CS(=O)(=O)c1ccc(-c2cc(N)sc2-c2ccc(F)cc2)cc1 | 207 to 209 °C

The remaining lines, values ahead:

melting point | SMILES
77 to 79 °C | OCCSc1nc(-c2ccccc2)c(-c2ccccc2)s1
104 to 106 °C | O=C1C(CCO)Oc2ccccc2N1Cc1cc(Cl)cc(Cl)c1 (centres undefined)
75 to 77 °C | O=Cc1cccc(Oc2ccccc2)c1F
94 to 95 °C | CCOC(=O)c1[nH]c2c(c1O)CCCC2
146 °C | C=CC(c1ccccc1)c1cc(C)c2c(c1O)C(=NO)CC2 (centres undefined)
57 to 60 °C | CCCC(=O)c1cnc2c(F)cccc2c1Cl
139 to 142 °C | N#CC(c1ccccc1)(c1ccccc1)C1CCCN(CCc2ccc(Cl)c(Cl)c2)C1 (centres undefined)
240 to 242 °C | Cc1ccc2[nH]c(NC(=O)c3ccccc3)nc(=O)c2c1
232 to 235 °C | Cc1ccc(-c2nn(-c3cccc(C(=O)O)c3)c(N)c2C(N)=O)cc1
210 to 214 °C | CNc1nonc1-c1nc2ccccc2n1CC(=O)c1ccc(Cl)cc1
158 °C | CC1(C)CCCN(C(=O)c2ccccc2NC(=O)CN2C(=O)c3ccccc3C2=O)C1
180 °C | O=C1c2ccccc2C(=O)N1Nc1ccccc1
108 to 111 °C | Cn1nc(-c2c(F)cccc2Cl)nc1C(=O)c1ccc(Cl)cc1
